Where two headings read alike, the source gives them in different places.
Tests used:
σ2 receptor = biological target: T1, σ2 receptor (Rattus norvegicus, UniProt Q5U3Y7); test: Receptor binding assay with [3H]-ditolylguanidine on rat liver membranes; settings: for Ki: read-out: affinity to the σ2 receptor
T1 construct: tissue Harlan Winkelmann; host or cells: rat liver membranes
T1 sequence (Q5U3Y7 1-176): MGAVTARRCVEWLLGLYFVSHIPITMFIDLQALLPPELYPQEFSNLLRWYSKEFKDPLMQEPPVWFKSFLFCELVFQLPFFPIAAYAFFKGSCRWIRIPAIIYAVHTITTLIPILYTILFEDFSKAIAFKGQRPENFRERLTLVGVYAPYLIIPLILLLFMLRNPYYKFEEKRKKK
Description: (§1) The pig brains were a donation of the local slaughterhouse (Coesfeld, Germany). Homogenizer: Elvehjem Potter (B. Braun Biotech International, Melsungen, Germany). Centrifuge: High-speed cooling centrifuge model Sorvall RC-5C plus (Thermo Fisher Scientific, Langenselbold, Germany). Filter: Printed Filtermat Typ A and B (Perkin Elmer LAS, Rodgau-Jügesheim, Germany), presoaked in 0.5% aqueous polyethylenimine for 2 h at room temperature before use. […] Before filling to the final volume of 1000 mL, the pH of the solution was adjusted to pH=7.5 by dropwise addition of 1M HCl. The filtration was carried out with a MicroBeta FilterMate-96 Harvester (Perkin Elmer). The scintillation analysis was performed using Meltilex (Typ A or B) solid scintillator (Perkin Elmer). The solid scintillator was melted on the filtermat at a temperature of 95 °C for 5 minutes. After solidifying of the scintillator at room temperature, the scintillation was measured using a MicroBeta Trilux scintillation analyzer (Perkin Elmer). The overall counting efficiency was 20 %. All experiments were carried out in triplicates using standard 96-well-multiplates (Diagonal, Muenster, Germany). […] The Ki-values are given as mean value ± SEM from three independent experiments.
Determination of affinity to the σ2 receptor
Two rat livers (Harlan Winkelmann, Borchen, Germany) were cut into smaller pieces and homogenized with the potter (500-800 rpm, 10 up-and-down strokes) in 6 volumes of cold 0.32 M sucrose. The suspension was centrifuged at 1200 x g for 10 min at 4 °C. The supernatant was separated and centrifuged at 31000 x g for 20 min at 4 °C. The pellet was resuspended in 5-6 volumes of buffer (50 mM TRIS, pH 8.0) and incubated at room temperature for 30 minutes. After the incubation, the suspension was centrifuged again at 31000 x g for 20 min at 4 °C. The final pellet was resuspended in 5 to 6 volumes of buffer, the protein concentration was determined according to the method of Bradford using bovine serum albumin as standard, and subsequently the preparation was frozen (-80 °C) in 1.5 mL portions containing about 2 mg protein/mL.
(50 Ci/mmol; ARC). […] The incubation was terminated by rapid filtration through the presoaked filtermats using a cell harvester. After washing each well five times with 300 µL of water, the filtermats were dried at 95 °C. Subsequently, the solid scintillator was placed on the filtermat and melted at 95 °C. The bound radioactivity trapped on the filters was counted in the scintillation analyzer as described in the "General procedures" section.

σ1 receptor = biological target: T2, σ1 receptor (Cavia porcellus, UniProt Q60492); test: Receptor binding assay with [3H]-(+)-pentazocine on guinea pig brain membranes; settings: for inhibition of the σ1 receptor only at concentrations above: given as above 1 µM or 10 µM
T2 construct: tissue Harlan Winkelmann; host or cells: guinea pig brain membranes
T2 sequence (Q60492 whole entry): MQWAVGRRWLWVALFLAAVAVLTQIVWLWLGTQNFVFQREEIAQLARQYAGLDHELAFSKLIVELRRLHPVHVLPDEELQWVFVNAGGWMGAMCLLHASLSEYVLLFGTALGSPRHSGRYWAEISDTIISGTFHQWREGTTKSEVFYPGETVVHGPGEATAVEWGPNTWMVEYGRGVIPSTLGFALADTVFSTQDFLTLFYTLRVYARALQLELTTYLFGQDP
Description: as §1
Determination of the affinity to the σ1 receptor
Five guinea pig brains (Harlan Winkelmann, Borchen, Germany) were homogenized with the potter (500-800 rpm, 10 up-and-down strokes) in 6 volumes of cold 0.32 M sucrose. The suspension was centrifuged at 1200 x g for 10 min at 4 °C. […] This procedure was repeated twice. The final pellet was resuspended in 5 to 6 volumes of buffer, the protein concentration was determined according to the method of Bradford using bovine serum albumin as standard, and subsequently the preparation was frozen (-80 °C) in 1.5 mL portions containing about 1.5 mg protein/mL.
The test was performed with the radioligand [^3H]-(+)-pentazocine (42,5 Ci/mmol; Perkin Elmer). […] The incubation was terminated by rapid filtration through the presoaked filtermats using a cell harvester. After washing each well five times with 300 µl of water, the filtermats were dried at 95 °C. The bound radioactivity trapped on the filters was counted in the scintillation analyzer as described in the "General procedures" section. The non-specific binding was determined with 10 µM unlabeled (+)-pentazocine.

[1] = biological target: T3, polyamine binding site of the NR2B subunit of the NMDA receptor (Homo sapiens, UniProt Q05586+Q13224); test: Filtration-based receptor binding assay with [3H]-Ifenprodil as radioligand; settings: 5 nM [3H]-Ifenprodil, membrane homogenates of mouse L(tk-) cells transfected with NR1-1a/NR2B, 180 min at 37 °C, read-out: affinity to the NR2B binding site of the NMDA receptor
T3 construct: expressed in transfected cells; host or cells: mouse L(tk-) cells, dexamethasone-induced; gift from D. Steinhilber, University of Frankfurt
T3 sequence (Q13224 27-1484, other chains not shown): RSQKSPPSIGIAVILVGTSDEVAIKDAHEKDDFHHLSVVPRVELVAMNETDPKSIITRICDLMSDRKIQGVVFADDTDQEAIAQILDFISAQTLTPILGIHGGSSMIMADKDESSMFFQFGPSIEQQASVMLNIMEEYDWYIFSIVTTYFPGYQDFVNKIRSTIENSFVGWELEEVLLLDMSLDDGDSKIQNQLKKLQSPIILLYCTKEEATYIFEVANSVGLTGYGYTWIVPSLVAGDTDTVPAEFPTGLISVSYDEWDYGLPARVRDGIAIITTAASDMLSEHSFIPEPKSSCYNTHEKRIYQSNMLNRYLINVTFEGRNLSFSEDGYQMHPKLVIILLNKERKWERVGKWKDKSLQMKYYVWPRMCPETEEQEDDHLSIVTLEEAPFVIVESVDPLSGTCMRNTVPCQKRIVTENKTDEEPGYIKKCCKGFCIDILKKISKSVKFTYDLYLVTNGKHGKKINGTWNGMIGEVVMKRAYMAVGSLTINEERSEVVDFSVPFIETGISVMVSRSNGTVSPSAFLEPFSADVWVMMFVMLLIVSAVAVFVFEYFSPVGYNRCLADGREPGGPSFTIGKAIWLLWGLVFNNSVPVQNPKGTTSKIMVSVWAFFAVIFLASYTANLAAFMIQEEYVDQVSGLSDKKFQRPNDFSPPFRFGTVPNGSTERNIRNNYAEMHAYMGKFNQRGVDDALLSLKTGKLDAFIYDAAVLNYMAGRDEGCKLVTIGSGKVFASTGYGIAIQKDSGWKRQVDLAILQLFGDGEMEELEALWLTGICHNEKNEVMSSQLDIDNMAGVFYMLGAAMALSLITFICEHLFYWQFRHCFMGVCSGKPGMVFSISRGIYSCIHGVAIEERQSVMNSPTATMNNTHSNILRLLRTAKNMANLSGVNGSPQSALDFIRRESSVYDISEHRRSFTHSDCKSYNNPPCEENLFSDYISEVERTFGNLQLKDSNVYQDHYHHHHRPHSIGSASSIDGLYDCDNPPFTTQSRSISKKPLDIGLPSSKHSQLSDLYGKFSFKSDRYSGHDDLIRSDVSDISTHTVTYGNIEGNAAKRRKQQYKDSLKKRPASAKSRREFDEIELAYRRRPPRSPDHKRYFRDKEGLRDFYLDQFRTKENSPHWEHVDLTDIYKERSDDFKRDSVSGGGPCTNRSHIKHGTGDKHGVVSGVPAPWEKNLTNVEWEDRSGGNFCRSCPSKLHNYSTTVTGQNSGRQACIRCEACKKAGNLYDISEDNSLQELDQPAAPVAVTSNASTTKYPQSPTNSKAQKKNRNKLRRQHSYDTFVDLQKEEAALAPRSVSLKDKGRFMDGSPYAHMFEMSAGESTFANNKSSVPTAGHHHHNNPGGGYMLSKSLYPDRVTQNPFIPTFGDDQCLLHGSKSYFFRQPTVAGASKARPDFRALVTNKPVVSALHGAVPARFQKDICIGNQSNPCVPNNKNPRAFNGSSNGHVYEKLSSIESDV
Description: Mouse L(tk-) cells stably transfected with the dexamethasone-inducible eukaryotic expression vectors pMSG NR1-1a, pMSG NR2B in a 1:5 ratio were a generous gift from D. Steinhilber (Department of Pharmacy, University of Frankfurt, Germany). The transformed L(tk-) cells were grown in Modified Earl's Medium (MEM) containing 10% of standardized FCS (Biochrom AG, Berlin, Germany). The expression of the NMDA receptor at the cell surface was induced after the cell density of the adherent growing cells had reached approximately 90% of confluency. For the induction, the original growth medium was replaced by growth medium containing 4 µM dexamethasone and 4 µM ketamine (final concentration). After 24 h the cells were harvested by trypsination and pelleted (10 min, 5,000 x g, Hettich Rotina 35R centrifuge, Tuttlingen, Germany).
For the binding assay, the cell pellet was resuspended in PBS buffer and the number of cells was determined using an improved Neubauer's counting chamber (VWR, Darmstadt, Germany). Subsequently, the cells were lysed by sonication (4 °C, 6 x 10 s cycles with breaks of 10 sec). The resulting cell fragments were centrifuged with a high performance cool centrifuge (20,000 x g, 4 °C, Sorvall RC-5 plus, Thermo Scientific). The supernatant was discarded and the pellet resuspended in a defined volume of phosphate buffer saline (PBS) yielding cell fragments of approximately 500,000 cells/mL. The suspension of membrane homogenates was sonicated again (4 °C, 2 x 10 s cycles with a break of 10 min) and stored at -80 °C.
The cell membrane suspension was added last. All experiments were carried out in triplicates. The incubation was terminated by rapid filtration through filtermats using a cell harvester (MicroBeta FilterMate-96 Harvester, Perkin Elmer). Prior to harvesting, the filtermats were presoaked in 0.5% aqueous polyethylenimine for 2 h at room temperature. After washing each well five times with 300 µL of water, the filtermats were dried at 95 °C. Subsequently, the solid scintillator was placed on the filtermat and melted at 95 °C. After 5 min, the solid scintillator was allowed to solidify at room temperature. The bound radioactivity trapped on the filters was counted in the scintillation analyzer (Microbeta Counter, Perkin Elmer). The overall counting efficiency was 20%.
The protein concentration was determined by the method of Bradford, modified by Stoscheck. The Bradford solution was prepared by dissolving 5 mg of Coomassie Brilliant Blue G 250 in 2.5 mL EtOH (95%, v/v). 10 mL deionized H2O and 5 mL phosphoric acid (85%, m/v) were added to this solution, the mixture was stirred and filled up to a total volume of 50.0 mL with deionized water. The calibration was carried out using bovine serum protein as a standard in concentrations between 0.1 and 10 mg /L. In a 96-well standard multiplate, 10 µL of the calibration solution or 10 µL of the membrane receptor preparation were mixed with 190 µL of the Bradford solution, respectively.
Kd and Bmax were calculated as described in the "Data analysis" section.
Data analysis was performed with Graph Pad Prism® Software, Version 3.0 (Graph Pad Software Inc., San Diego, CA, USA).
Saturation analyses were made by nonlinear regression using the "one-site-saturation" calculation method. The IC50 values of the test compounds used in the competitive binding experiments were determined by nonlinear regression using the "one-site-competition" calculation method. […] The Ki values are given as mean values from three independent experiments ± Standard Error of the Mean (S.E.M).

[2] = 3 nM [3H]-ditolylguanidine with 2 µM (+)-pentazocine
[3] = 2 nM [3H]-(+)-pentazocine, guinea pig brain membranes
[4] = Ki mean of three experiments ± S.E.M.
[5] = 3 nM [3H]-ditolylguanidine with 2 µM (+)-pentazocine, 180 min at room temperature, mean ± SEM
[6] = 2 nM [3H]-(+)-pentazocine, guinea pig brain membranes, 180 min at 37 °C, mean ± SEM, read-out: affinity to the σ1 receptor
[7] = 3 nM [3H]-ditolylguanidine with 2 µM (+)-pentazocine, values given in µM

Row | Structure (SMILES) | Ki [1, 4] [µM] | Ki (σ2 receptor; [5]) [µM] | Ki (σ1 receptor; [6]) [nM] | also measured
1 | Oc1ccc2c(c1)CCN([C@H]1CC[C@@H](c3ccccc3)CC1)CC2O (relative stereo) [formula (21)] | 0.00486 | 0.00856 ± 0.00433 |  | 
2 | Oc1ccc2c(c1)CCN([C@H]1CC[C@H](c3ccccc3)CC1)CC2O (relative stereo) [formula (23)] | 0.0342 | 0.00893 ± 0.00257 | 200 ± 62 | 
3 | COc1ccc2c(c1)CCN(CCCCc1ccccc1)CC2O (stereo not shown) [formula (1)] | 0.00512 | 0.554 ± 0.221 | 182 ± 67 | 
4 | CCCCCCCCN1CCc2cc(OC)ccc2C(O)C1 (stereo not shown) [formula (2)] | 0.591 ± 0.15 | 0.108 ± 0.09 |  | Ki (σ1 receptor): 44.6 ± 21.4 nM
5 | COc1ccc2c(c1)CCN(C1CCC(c3ccccc3)CC1)CC2O (stereo not shown) [formula (3)] | 0.192 ± 0.026 | 0.0816 ± 0.0444 | 33.1 ± 29.8 | 
6 | Oc1ccc2c(c1)CCN(CCCCc1ccccc1)CC2O (stereo not shown) [formula (4)] | 0.0153 ± 0.0012 |  |  | 
7 | COc1ccc2c(c1)CCN(CCCC(=O)c1ccc(F)cc1)CC2O (stereo not shown) [formula (6)] | 0.258 |  |  | inhibition of the σ2 receptor only at concentrations above (σ2 receptor; [2]): above 1 µM; inhibition of the σ1 receptor only at concentrations above (σ1 receptor; [3]): above 1 µM
8 | COc1ccc2c(c1)CCN(CCCCSc1ccccc1)CC2O (stereo not shown) [formula (7)] |  | 0.308 ± 0.116 | 94.7 ± 51 | Ki ([1]; values given in µM): 1.04 µM
9 | COc1ccc2c(c1)CCN(CCCSc1ccccc1)CC2O (stereo not shown) [formula (8)] |  |  | 155 | Ki (σ2 receptor; [7]): 1.52 µM; Ki ([1]; values given in µM): 1.88 µM
10 | COc1ccc2c(c1)CCN(CCCC1(c3ccc(F)cc3)OCC(C)(C)CO1)CC2O (stereo not shown) [formula (11)] | 0.107 |  | 45.6 | Ki (σ2 receptor; 3 nM [3H]-[…] with 2 µM (+)-pentazocine, 180 min at room temperature, mean ± SEM): 0.103 µM
11 | COc1ccc2c(c1)CCN(CCCC(=O)c1ccc(C(C)(C)C)cc1)CC2O (stereo not shown) [formula (14)] | 0.0604 | 0.267 ± 0.055 | 44.3 ± 14.1 | 
12 | CC1(C)COC(CCCN2CCc3cc(OCc4ccccc4)ccc3C(O)C2)(c2ccc(F)cc2)OC1 (stereo not shown) [formula (15)] |  |  |  | inhibition of the σ2 receptor only at concentrations above (σ2 receptor; [2]): above 1 µM; inhibition of the σ1 receptor only at concentrations above (σ1 receptor; [3]): above 1 µM; Ki ([1]; values given in µM): 1.24 µM
13 | CN(Cc1ccccc1)C(=O)CN1CCc2cc(O)ccc2C(O)C1 (stereo not shown) [formula (16)] |  |  | 172 | Ki (σ2 receptor; [7]): 1.58 µM; Ki ([1]; values given in µM): 7.68 µM
14 | COc1ccc2c(c1)CCN(CCCCc1ccccc1)[C@@H](C)[C@H]2O [formula (17)] | 0.209 | 0.00608 ± 0.00148 | 42.1 ± 9.9 | 
15 | COc1ccc2c(c1)CCN(CCCCc1ccccc1)[C@H](C)[C@@H]2O [formula (18)] | 0.586 | 0.0185 ± 0.0042 | 3.21 ± 1.42 | 
16 | Oc1ccc2c(c1)CCN(CCCOc1ccccc1)CC2O (stereo not shown) [formula (22)] | 0.0234 | 0.00589 ± 0.00286 | 82.2 | 
17 | C[C@H]1[C@H](O)c2ccc(O)cc2CCN1CCCCc1ccccc1 [formula (29)] | 0.171 |  | 40.8 | 
18 | C[C@@H]1[C@@H](O)c2ccc(O)cc2CCN1CCCCc1ccccc1 [formula (30)] | 0.0164 |  | 846 | 

Continued, in another order:

Row | Ki [1, 4] [µM] | Ki (σ2 receptor; [5]) [µM] | Ki (σ1 receptor; [6]) [nM] | Structure (SMILES) | also measured
19 | 0.156 |  |  | OC1CN([C@H]2CC[C@@H](c3ccccc3)CC2)CCc2cc(OCc3ccccc3)ccc21 (relative stereo) [formula (19)] | inhibition of the σ2 receptor only at concentrations above (σ2 receptor; [2]): above 1 µM; inhibition of the σ1 receptor only at concentrations above (σ1 receptor; [3]): above 1 µM
20 | 0.325 | 0.305 | 65.3 ± 12.3 | COc1ccc2c(c1)CCN(CCCCCc1ccccc1)CC2O (stereo not shown) [formula (5)] | 
21 | 0.249 ± 0.063 |  | 293 ± 101 | OC1CN(CCCCc2ccccc2)CCc2cc(OCc3ccccc3)ccc21 (stereo not shown) [formula (9)] | Ki (σ2 receptor; [7]): 1.05 µM
22 | 0.0452 |  | 349 | O=S(=O)(CCCN1CCc2cc(OCc3ccccc3)ccc2C(O)C1)c1ccccc1 (stereo not shown) [formula (10)] | Ki (σ2 receptor; [7]): 3.04 µM
23 | 0.046 | 0.653 | 376 | OC1CN(CCCSc2ccccc2)CCc2cc(OCc3ccccc3)ccc21 (stereo not shown) [formula (12)] | 
24 | 0.099 |  | 604 | CC(C)(C)c1ccc(C(=O)CCCN2CCc3cc(OCc4ccccc4)ccc3C(O)C2)cc1 (stereo not shown) [formula (13)] | Ki (σ2 receptor; [7]): 6.43 µM
25 |  | 0.311 | 10.4 ± 1.4 | OC1CN(C2CCC(c3ccccc3)CC2)CCc2cc(OCc3ccccc3)ccc21 (stereo not shown) [formula (20)] | Ki ([1]; values given in µM): 2.51 µM

From patent publication EP2246331A1, “NR2B-selective NMDA-receptor antagonists” (Westfälische Wilhelms-Universität Münster, priority 2009, dated 2010)
